How the values were obtained:
[1] = test system: rabbit articular chondrocytes; experiment: Matrix production of rabbit articular chondrocytes in the presence of IL-1; format: cell-based; conditions: 1 × 10^−6 M; IL-1β 1 ng/ml; until day 3; vehicle = 100
Experimental: Four NZW line rabbits (Kitayama Labes., Co Ltd.; male; 4-week-old) were sacrificed with bleeding under ether anesthesia and knee joints of femur side were collected aseptically. Only the cortical layer was scrapped with a surgical knife in phosphate buffer (pH 7.2) containing 0.2% glucose and then placed into a 50 ml tube containing phosphate buffered saline containing 0.2% glucose. The collected knee joint cortical layer was cut into as small sections as possible on a dish with a razor, combined with 50 ml of phosphate buffer (100 mg trypsin, 40 mg EDTA·4 Na; pH 7.2) containing 0.2% glucose, supplied with 10× trypsin-ethylenediamine tetraacetic acid tetra sodium salt (EDTA·4Na: GIBCO; Cat. No. 15400-054) and shaken at 37° C. for 15 minutes.
After shaking, the precipitates were collected by centrifugation (1,400 rpm) and washed twice with 40 ml of phosphate buffer (pH 7.2) with 0.2% glucose.
To the washed precipitates was added 40 ml of α-minimum essential medium (MEM: GIBCO; Cat. No. 12571-063) containing 60 mg of collagenase for cell diffusion (Wako Pure Chemical Industries, Ltd., 034-10533) and antibiotics (200 U/ml penicillin G and 200 μg/ml streptomycin sulfate) (GIBCO; Cat. No. 15140-122), and the mixture was transferred to a 100 ml beaker containing a sterilized stirrer bar.
The incubation was conducted in a CO2 incubator at 37° C. for 30 minutes under stirring with a stirrer bar. Deoxyribonuclease I (Takara Shuzo Co., LTD.; Cat. No. 2210A) was then added at a concentration of 70 U/ml. The cultivation was conducted under the same condition for another 30 minutes. The supernatant of the culture was collected in another vessel and the remaining cartilage slips were then cultured again for about 30 minutes in freshly prepared α-minimum essential medium containing 60 mg of collagenase and 70 U/m1 deoxyribonuclease I.
To the previously collected culture supernatant and the last culture, from which cartilage slips had been removed using a 40 μm Cell Strainer (FALCON; Cat. No. 2340), 10 ml of α-minimum essential medium (MEM: GIBCO; Cat. No. 12571-063) containing 10% fetal calf serum (GIBCO Cat. No. 10099-141) and antibiotics (200 U/ml penicillin G and 200 μg/ml streptomycin sulfate) (GIBCO; Cat. No. 15140-122) was added and centrifuged (1,400 rpm, 10 minutes).
The precipitates were washed twice with α-minimum essential medium containing 10% fetal calf serum and antibiotics, suspended with an appropriate volume of the same medium, and seeded into 48-well plates (20,000 cells/well). […]
After staining, the cells were washed 3 times with 1 ml of phosphate buffer (pH 7.2). Alcian blue which had stained cartilage matrix was dissolved with 0.25 ml of 6 M aqueous guanidine hydrochloride solution and a portion of which was used to determine the absorbance at 620 nm. […]

[2] = test system: cAMP hydrolytic PDE expressed in human articular cartilage (fraction Nos. 28-30); experiment: Inhibition of cAMP hydrolyzing activity of fraction Nos. 28-30 of human articular cartilage extract; format: biochemical
Experimental: From the human knee articular cartilage was isolated on surgery of osteoarthrosis patients. Cartilage portion was scrapped with a surgery knife, washed with ice-cold phosphate buffer and stored at −80° C. The cartilage tissues were milled at −80° C. and then, scattered into pieces with homogenizer (Kinematica A.G., Polytron) in ice-cold homogenization buffer (20 mM Tris-HCl, pH 8.0, 1 mM ethylene glycol bis(β-aminoethylether)-N,N,N′,N′-tetraacetic acid, 1 mM dithiothreitol, 10 μg/ml leupeptin, 5 mM benzamidine, 0.2 mM phenylmethylsulfonyl fluoride, 1 mM sodium azide and 5 mM mercaptoethanol). The resultant homogenate was centrifuged (100,000×g; 30 minutes) to separate supernatant.
The above supernatant was loaded on a Mono Q Sepharose High Performance column (Amersham Pharmacia Biotech) equilibrated with elution buffer (20 mM Tris-HCl, pH 8.0, 1 mM ethylene glycol bis(β-aminoethylether)-N,N,N′,N′-tetraacetic acid, 1 mM dithiothreitol, 2 μg/ml leupeptin, 5 mM benzamidine). After washing the column with 20 ml of elution buffer, proteins were eluted into 1 ml fractions by aqueous sodium chloride solution (concentration gradient: 0 to 1000 mM, 70 ml) under ice-cooling. Each fraction was subjected to the determination of hydrolytic activity (PDE activity) toward cAMP and cGMP as a substrate.
The determination of PDE activity was performed by a radio-labeled nucleic acid assay. That is, the reaction was initiated by adding from 10 to 50 μl of elution fraction to 500 μl of assay buffer (50 mM Tris-HCl, pH 8.0, 5 mM magnesium chloride, 4 mM 2-mercaptoethanol) containing 1 μM of unlabeled cAMP and 22 nM of [^3H]-cAMP (Amersham Pharmacia Biotech).
After incubation at 37° C. for 30 minutes, the reaction was quenched by boiling for 1.5 minutes. Then, 100 μl of 1 mg/ml Crtalus atrox snake venom was added and incubated at 37° C. for 30 minutes. After addition of 500 μl of methanol, the reaction solution was subjected to Dowex column (1×8-400). To each eluate was added a liquid scintillation cocktail and the radio activity was measured.
The inhibitory activity of PDE4 inhibitor on fraction Nos. 28-30 containing potent cAMP hydrolyzing activity was measured according to the above-mentioned radio-labeled nucleic acid assay. The test compounds are Compound (1), Compound (2), Compound (11), Compound (44) and Compound (27).

Row | SMILES | Proteoglycan Production (%) [1] | inhibition of the hydrolytic activity of the fraction ([2]; fraction Nos. 28-30, FIG. 4) | IC50 for fraction(s) ([2]; method of Journal of Medicinal Chemistry, vol. 42, 1088-1099 (1999), values only in FIG. 4)
1 | COc1ccc(C(=O)Nc2c(Cl)cncc2Cl)cc1OC1CCCC1 [Compound (11)] | 121% | – | –
2 | CCOc1cc2cc(CO)c(CO)c(-c3ccnc(-n4nc(-c5cccnc5)c5ccccc5c4=O)c3)c2cc1OCC [Compound (2)] | 143% | inhibits the hydrolytic activity of the fraction strongly | consistent with the IC50 of PDE4 inhibition activity described in the same literature
